Series [1] in a line: pKa determination by UV–vis acid–base titrations in water. In kind it is physicochemical. The following applies: aqueous phosphate and carbonate buffers; RH^2+/R^+ or MH^+/M; UV–vis titrations in water, chloride salts. The text has this:
Next, in our study of the stimuli-responsiveness of the “vermellogens”, we proceeded to verify the new analogues as pH-based molecular switches, by conducting UV–vis acid–base titrations in water for the compounds Ra–eH·2Cl. All the new “vermellogens” show similar π–π* main absorption bands centered at λ^1max = 366–377 nm at neutral or slightly acidic pH. An increase in the basicity of the solution produces the decrease of the aforementioned bands and the concomitant rise of new absorptions associated with the deprotonated compounds and centered at λ^2max = 460–475 nm. The pKa values obtained by the aforementioned UV–vis titrations for Ra–eH·2Cl are quite similar, showing no dependence on the substituent on the pyridinium N^+ atoms within their structures (Table 1 and Figures S115–S125). Furthermore, to evaluate the effect of the two different pyridinium heterocycles on the observed anomalous pKa’s, two analogues were prepared (Ma–bH·Cl), in which one of these moieties was substituted by a neutral phenyl ring.
4.2. pK a determination for Rb by UV-Vis
Figure S 116: UV-Vis spectra for the titration of R b·2Cl at 20 μM in NaH 2PO4/Na2HPO4, KHCO3/K2CO3 and Na2HPO4/Na2PO4 buffers. On the top right: Absorption of R b+ at λ = 474 nm plotted against pH. pH V (mL) of V (mL) of V (mL) of V (mL) of V (mL) of ABS log[A474-(measured) solution A solution B solution C solution D solution E (474 ARb2+)/(ARb1+- […]
Table S 4: Experimental data obtained for the UV-Vis titration of R b·2Cl at 20 μM in NaH2PO4/Na2HPO4, KHCO3/K2CO3 and Na2HPO4/Na2PO4 buffer. Solution A: 20 μM of R b·2Cl and 0.05 M of NaH2PO4. Solution B: 20 μM of R b·2Cl and 0.05 M of NaHPO4. Solution C: 20 μM of R b·2Cl and 0.05 M of Na2PO4. Solution D: 20 μM of R b·2Cl and 0.05 M of KHCO3. Solution E: 20 μM of R b·2Cl and 0.05 M of […]
4.4. pK a determination for Rc by UV-Vis
Figure S 119: UV-Vis spectra for the titration of R c·2Cl at 20 μM in NaH 2PO4/Na2HPO4, KHCO3/K2CO3 and Na2HPO4/Na2PO4 buffers. On the top right: Absorption of R c+ at λ = 466 nm plotted against pH. pH V (mL) of V (mL) of V (mL) of V (mL) of V (mL) of ABS log[A466-(measured) solution A solution B solution C solution D solution E (466 ARc2+)/(ARc+- […]
Table S 5: Experimental data obtained for the UV-Vis titration of R c·2Cl at 20 μM in NaH2PO4/Na2HPO4, KHCO3/K2CO3 and Na2HPO4/Na2PO4 buffer. Solution A: 20 μM of Rc·2Cl and 0.05 M of NaH2PO4. Solution B: 20 μM of R c·2Cl and 0.05 M of NaHPO4. Solution C: 20 μM of R c·2Cl and 0.05 M of Na2PO4. Solution D: 20 μM of R c·2Cl and 0.05 M of KHCO3. Solution E: 20 μM of R c·2Cl and 0.05 M of […]
4.6. pK a determination for Rd by UV-Vis
Figure S 122: UV-Vis spectra for the titration of R d·2Cl at 20 μM in NaH 2PO4/Na2HPO4, KHCO3/K2CO3 and Na2HPO4/Na2PO4 buffers. On the top right: Absorption of R d+ at λ = 475 nm plotted against pH. pH V (mL) of V (mL) of V (mL) of V (mL) of V (mL) of ABS log[A475-(measured) solution A solution B solution C solution D solution E (475 ARd2+)/(ARd1+- […]
Table S 6: Experimental data obtained for the UV-Vis titration of R d·2Cl at 20 μM in NaH2PO4/Na2HPO4, KHCO3/K2CO3 and Na2HPO4/Na2PO4 buffer. Solution A: 20 μM of R d·2Cl and 0.05 M of NaH2PO4. Solution B: 20 μM of R d·2Cl and 0.05 M of NaHPO4. Solution C: 20 μM of R d·2Cl and 0.05 M of Na2PO4. Solution D: 20 μM of R d·2Cl and 0.05 M of KHCO3. Solution E: 20 μM of R d·2Cl and 0.05 M of […]
4.8. pK a determination for Re by UV-Vis
Figure S 125: UV-Vis spectra for the titration of R e·2Cl at 20 μM in NaH 2PO4/Na2HPO4, KHCO3/K2CO3 and Na2HPO4/Na2PO4 buffers. On the top right: Absorption of R e+ at λ = 460 nm plotted against pH. pH V (mL) of V (mL) of V (mL) of V (mL) of V (mL) of ABS log[A460-(measured) solution A solution B solution C solution D solution E (460 ARe2+)/(ARe1+- […]
Table S 7: Experimental data obtained for the UV-Vis titration of R e·2Cl at 20 μM in NaH2PO4/Na2HPO4, KHCO3/K2CO3 and Na2HPO4/Na2PO4 buffer. Solution A: 20 μM of R e·2Cl and 0.05 M of […]

In series [2] the test system is HFF-1 cells. The series is described as follows: Cell viability assay (WST-1) in human fibroblastic cell line. In kind it is cell-based. The following applies: HFF-1, 1 mM, 24 h, WST-1. Here is the method:
(§1) To conclude with this part of our work on the molecular responsiveness of the “vermellogens,” we decided to substantiate whether the bis-pyridinium core in the compounds would have or not a viologen-like reversible redox behavior. Thus, cyclic voltamograms were recorded for RaH·2Cl (2 mM) in buffered aqueous solutions at pH = 2 (0.05 M H3PO4/NaH2PO4), 7 (0.05 M NaH2PO4/Na2HPO4), and 12 (0.05 M Na2HPO4/Na3PO4). Those shown both the acidic (RaH^2+) and basic (Ra^+) forms of the “red thread” owning non-reversible redox peaks (Figure 1b).
(§2) Fibroblast cells (HFF-1; ATTC® SCRC-1041TM) were maintained in Dulbecco’s modified eagle’s medium (DMEM) supplemented with 10% FBS and 1% P/S and kept at 37 °C in a humidified atmosphere containing 5% CO2 until their use. HFF-1 cells were seeded in 96 well-plates at an initial density of 10^4 cells/well and allowed to attach for 24 h at 37 °C. The following day, culture medium was removed, replenished by fresh medium (90 µl) and cells were exposed to different concentration of R aH·2Cl and MV (10 µl; final concentrations 0.01, 0.05, 0.1, 0.5 and 1 mM). Control conditions included cells cultured in culture medium, but in absence of compound. Cells were further incubated for 24 h at 37°C and cell viability was monitored using the tetrazolium salt (WST-1) method.6 Absorbance at 450 nm was measured using a Synergy HTX Plate Reader (Biotek, Winooski, VT, USA) and the percent of cell viability (%) was calculated as follows:
(§3) Viability (%) = […]
(§4) Where Asample and Anegative control depict those absorbance values measured at 450 nm in presence and in absence of compound, respectively. All conditions were tested by triplicate in two independent experiments. Data were expressed as mean ± standard deviation (SD). Statistical analysis was performed by two-ways and one-way ANOVA with Tukey’s LSD post hoc test using IBM SPSS Statistics version 23. A p ≤ 0.05 was considered statistically significant.
(§5) Figure S 138: Compounds tested in WST-1 assay for cell viability.
(§6) 6 Carballo-Pedrares, N.; Kattar, A.; Concheiro, A.; Alvarez-Lorenzo, C.; Rey-Rico, Niosomes-based gene delivery systems for effective transfection of human mesenchymal stem cells. A. Matter. Sci. Eng. 2021, 18, 112307.
A general note: Tetrazolium dyes change colour on reduction, which living cells bring about.

Test in series [3]: as above
In kind it is cell-based. The following applies: human, HFF-1 fibroblast cells; HFF-1, 0.5 mM, 24 h, WST-1; read-out: cell viability (cell survival). Here is the method: as §1, §2, §3, §4, §5, §6

Each structure is given as a SMILES string.

In general, pKa refers to the negative logarithm of the acid dissociation constant. Usually viability stands for the share of living cells, or the viability signal relative to a control.

As for `C[n+]1ccc(/C=N/Nc2cc[n+](C)cc2)cc1` [RaH·2X, (E)-1-methyl-4-((2-(1-methylpyridin-1-ium-4-yl)hydrazineylidene)methyl)pyridin-1-ium], in series [1], the pKa is 9. In addition, the “cell survival at the highest concentration tested” value in series [2] is “slight reduction on cell survival”. In addition, the viability at 24 h, 0.5 mM in series [3] was approximately 90%.

Source of the values: paper PMC9682480, ““Vermellogens” and the Development of CB[8]-Based Supramolecular Switches Using pH-Responsive and Non-Toxic Viologen Analogues” (Journal of the American Chemical Society, 2022).
